The target in assay [1] is T1, tnPXR (Tetraodon PXR, GAL4/LBD) (Tetraodon nigroviridis, UniProt H3D8U6).
T1 construct: cloned from liver RNA
T1 sequence (H3D8U6 123-404): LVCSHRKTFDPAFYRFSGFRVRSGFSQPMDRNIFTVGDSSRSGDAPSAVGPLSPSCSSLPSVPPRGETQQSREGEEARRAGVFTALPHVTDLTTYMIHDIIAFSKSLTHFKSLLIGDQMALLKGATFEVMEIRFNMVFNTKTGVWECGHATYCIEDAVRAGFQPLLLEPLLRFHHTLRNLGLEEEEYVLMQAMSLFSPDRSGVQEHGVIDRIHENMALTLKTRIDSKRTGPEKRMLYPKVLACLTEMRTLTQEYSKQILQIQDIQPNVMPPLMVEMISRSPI
Further details: species or system HepG2-NTCP; GAL4/LBD chimera luciferase transactivation, normalised to beta-galactosidase, efficacy relative to maximal activator. As to conditions: agonist. On the procedure:
(§1) The creation of a HepG2 (human liver) cell line stably expressing the human Na^+-taurocholate cotransporter (NTCP; SLC10A1) has been previously reported. HepG2-NTCP cells were grown in modified Eagle's medium-α containing 10% fetal bovine serum and 1% penicillin/streptomycin. The cells were grown at 37°C in 5% CO2. The chicken LMH hepatoma cell line (ATCC, Manassus, VA, USA) was grown in Waymouth's MB 752/1 medium (ATCC) with 10 fetal bovine serum. The Xenopus laevis A6 kidney cell line (ATCC) was grown in 75% NCTC 109 medium, 15% distilled water, and 10% fetal bovine serum at 26°C in 2% CO2. Except as noted above, all media and media supplements for the HepG2 and A6 cell lines were obtained from Invitrogen (Carlsbad, CA, USA). Co-transfections and transactivations assays were performed as previously described. The maximal activators and their concentrations were as follows: chVDR, xlVDR, and tnVDR - 200 nM 1α,25-(OH)2-vitamin D3; tnFXR - 5 μM GW4064; tnPXR - 50 μM 5α-androstan-3α-ol. All comparisons to maximal activators were done within the same microplate. Luciferase data were normalized to the internal β-galactosidase control and represent means ± SD of the assays. The LBD of chicken VDR was cloned from RNA extracted from the LMH cell line. The LBD of Xenopus laevis VDR was cloned from RNA extracted from the A6 cell line. The LBDs of tnFXR, tnVDR, and tnPXR were cloned from total RNA extracted from Tetraodon liver using sequence information from the draft Tetraodon nigriviridis genome. The LBDs of chVDR (amino acid residues 113-451), xlVDR (amino acid residues 91-422), tnFXR (amino acid residues 180-463), tnVDR (amino acid residues 91-426), and tnPXR (amino acid residues 202-483) were inserted into the pM2-GAL4 vector to create GAL4/LBD chimeras.

For assay [2], the target named is T1, tnPXR (Tetraodon PXR, GAL4/LBD). Description: cell-based. Further details: GAL4/LBD chimera luciferase transactivation, normalised to beta-galactosidase, efficacy relative to maximal activator. The settings on record: HepG2-NTCP; relative to 50 uM 5α-androstan-3α-ol; read-out: Efficacy. On the procedure:
as §1

The target of assay [3] is T2, tnPXR (Tetraodon PXR, GAL4/LBD) (Tetraodon nigroviridis, UniProt H3D8U6).
T2 construct: cloned from liver RNA
As to the kind of experiment: GAL4/LBD luciferase transactivation. It counts as cell-based. The settings on record: agonist, HepG2-NTCP cells.

The target of assay [4] is T3, tnVDR (Tetraodon VDR alpha, GAL4/LBD) (Tetraodon nigroviridis, UniProt A0A0A1CGS5).
T3 construct: gene VDRa; cloned from liver RNA
T3 sequence (A0A0A1CGS5 91-420): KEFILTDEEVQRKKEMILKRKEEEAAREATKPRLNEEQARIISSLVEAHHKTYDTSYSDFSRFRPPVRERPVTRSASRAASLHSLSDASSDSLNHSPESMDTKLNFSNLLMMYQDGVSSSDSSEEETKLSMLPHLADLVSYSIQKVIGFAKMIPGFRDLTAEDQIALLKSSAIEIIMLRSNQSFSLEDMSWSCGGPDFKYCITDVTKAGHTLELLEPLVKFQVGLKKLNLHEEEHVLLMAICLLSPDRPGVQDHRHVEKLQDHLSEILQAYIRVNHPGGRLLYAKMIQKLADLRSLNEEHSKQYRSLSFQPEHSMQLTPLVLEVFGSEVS
Description: cell-based. Further details: GAL4/LBD chimera luciferase transactivation, normalised to beta-galactosidase, efficacy relative to maximal activator. The settings on record: HepG2-NTCP; relative to 200 nM 1α,25-(OH)2-vitamin D3; read-out: Efficacy. Here is the method:
as §1

In assay [5] the test system is T4, tnFXR (Tetraodon FXR, GAL4/LBD).
T4 construct: gene NR1H4; cloned from liver RNA
As to the kind of experiment: GAL4/LBD luciferase transactivation. It counts as cell-based, Tetraodon nigroviridis. The settings on record: agonist, HepG2-NTCP cells.

Assay [6] deals with T5, chVDR (chicken VDR, GAL4/LBD) (Gallus gallus, UniProt O42392).
T5 sequence (O42392 113-451): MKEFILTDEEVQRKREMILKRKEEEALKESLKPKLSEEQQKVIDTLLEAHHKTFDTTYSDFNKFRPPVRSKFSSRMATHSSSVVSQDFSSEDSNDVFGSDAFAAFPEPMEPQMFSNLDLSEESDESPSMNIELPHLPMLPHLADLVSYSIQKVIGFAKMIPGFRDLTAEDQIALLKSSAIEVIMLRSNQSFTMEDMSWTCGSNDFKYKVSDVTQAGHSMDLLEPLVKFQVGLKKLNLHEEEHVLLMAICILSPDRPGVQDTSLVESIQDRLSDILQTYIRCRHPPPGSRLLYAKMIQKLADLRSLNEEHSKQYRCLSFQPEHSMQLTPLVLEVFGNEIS
Description: cell-based.

[7] abbreviates: reference maximal activator ([…]).

Where two headings read alike, the source gives them in different places.

Usually EC50 stands for the concentration at which the effect is half-maximal. Take `C[C@H](CCCC(CO)COS(=O)(=O)O)[C@H]1CC[C@H]2[C@@H]3[C@H](O)C[C@H]4C[C@H](O)CC[C@]4(C)[C@H]3C[C@H](O)[C@]12C` (stereo partly drawn) [5α-Cyprinol-27-sulfate]: in assay [1], the EC50 was 8.2 µM.

For the compound `CCCCOC(=O)c1ccc(N)cc1` [n-butyl 4-amino benzoate], the Emax in assay [2] is 88%. The compound further registered an EC50 in assay [3] of 25.6 ± 1.4 µM. Regarding `C[C@]12CC[C@@H]3c4ccc(O)cc4CC[C@H]3[C@@H]1CC[C@@H]2O` [Estradiol], the Emax in assay [2] stood at 47%. Also, in assay [1], it took 9.6 µM to reach a half-maximal effect (EC50). Taken in the same sequence, the figures for `C[C@]12CC[C@H](OS(=O)(=O)O)CC1=CC[C@@H]1[C@@H]2CC[C@]2(C)C(=O)CC[C@@H]12` [DHEA_sulfate] were 70% and 8.5 µM. Regarding `C=C1CC[C@H](O)C/C1=C/C=C1\CCC[C@]2(C)[C@@H]([C@H](C)CCCC(C)(C)O)CC[C@@H]12` [25-Hydroxyvitamin D3], the Emax in assay [4] is 110%.

For the compound `C[C@H](CCC(=O)O)[C@H]1CC[C@H]2[C@@H]3CC[C@H]4CCCC[C@]4(C)[C@H]3CC[C@]12C` [5α-Cholan-24-oic acid], the Emax in assay [4] turned out to be 3%. For the compound `C[C@]12CCC(=O)C=C1CC[C@@H]1[C@@H]2C(=O)C[C@@]2(C)[C@H]1CC[C@]2(O)C(=O)CO` [Cortisone], the Emax in assay [2] is 19%. This compound displayed an EC50 in assay [1] of 12.2 µM. Turning to `CC(=O)[C@H]1CC[C@H]2[C@@H]3CC[C@@H]4CC(=O)CC[C@]4(C)[C@H]3CC[C@]12C` [5β-pregnane-3,20-dione], the response in assay [3] was half-maximal at 4 µM (EC50). Turning to `C[C@H](CCC(=O)O)[C@H]1CC[C@H]2[C@@H]3CC[C@@H]4CC(=O)CC[C@]4(C)[C@H]3CC[C@]12C` [3_Keto_LCA], the Emax in assay [4] stood at 17%; in assay [2], 65%. Also, in assay [1], a half-maximal effect (EC50) was put at 42.3 µM.

For the compound `CC(=O)[C@H]1CC[C@H]2[C@@H]3CCC4=CC(=O)CC[C@]4(C)[C@H]3CC[C@]12C` [Progesterone], the Emax in assay [2] amounted to 33%. Also, the EC50 in assay [1] stood at 8.9 µM. `C[C@]12CC[C@@H](O)C[C@@H]1CC[C@@H]1[C@@H]2CC[C@]2(C)C=CC[C@@H]12` [5α-Androst-16-en-3α-ol]: the Emax in assay [2] came to 58%. Besides, in assay [1], the EC50 is 7.4 µM. On to `C[C@H](CCC(=O)O)[C@H]1CC[C@H]2[C@@H]3CC[C@@H]4C[C@H](O)CC[C@]4(C)[C@H]3C[C@H](O)[C@]12C` [Deoxycholic acid], for which, in assay [2], the Emax turned out to be 33%. In assay [1], this compound came in with an EC50 of 9 µM. In the same order, the values of `C[C@H](CCC(=O)NCCS(=O)(=O)O)[C@H]1CC[C@H]2[C@@H]3CC[C@@H]4C[C@H](O)CC[C@]4(C)[C@H]3CC[C@]12C` [Tauro-LCA] are 29% and 19.1 µM. Take `CC(=O)O[C@@H]1CC[C@@]2(C)[C@H](CC[C@@H]3[C@@H]2CC[C@]2(C)[C@@H]([C@H](C)CCC(=O)O)CC[C@@H]32)C1` [LCA acetate]: the Emax in assay [4] is 61%. Take `O=S(=O)(c1ccccc1)N(CC(F)(F)F)c1ccc(C(O)(C(F)(F)F)C(F)(F)F)cc1` [T-0901317]: the Emax in assay [2] was found to be 17%. Moreover, the EC50 in assay [1] was 7.7 µM. Regarding `C[C@H](CCC(=O)O)[C@H]1CC[C@H]2[C@@H]3CC[C@@H]4C[C@@H](O)CC[C@]4(C)[C@H]3CC[C@]12C` [Iso-LCA], the Emax in assay [4] was 4%. In assay [5] (setting [7]), `CC(C)c1onc(-c2c(Cl)cccc2Cl)c1COc1ccc(/C=C/c2cccc(C(=O)O)c2)c(Cl)c1` [GW4064] came in with an EC50 of 2.8 ± 0.8 µM.

Take `C[C@H](CCC(=O)NCCS(=O)(=O)O)[C@H]1CC[C@H]2[C@@H]3[C@H](O)C[C@@H]4C[C@H](O)CC[C@]4(C)[C@H]3CC[C@]12C` [TCDCA, taurochenodeoxycholic acid]: in assay [2], the Emax was determined as 59%. The EC50 in assay [3] was found to be 4.8 ± 0.3 µM. In the case of `C[C@H](CCC(=O)O)[C@H]1CC[C@H]2[C@@H]3[C@H](O)C[C@@H]4C[C@H](O)CC[C@]4(C)[C@H]3CC[C@]12C` [CDCA, 3α,7α-dihydroxy-5β-cholan-24-oic acid], in assay [2], the Emax stood at 38%. In assay [1], this compound came in with an EC50 of 15.6 µM.

For the compound `CC(=O)[C@H]1CC[C@H]2[C@@H]3CC[C@@H]4CC(=O)CC[C@]4(C)[C@H]3CC[C@]12C` [5β-Pregnanedione], in assay [2], the Emax turned out to be 73%.

For `CC(=O)[C@H]1CC[C@H]2[C@@H]3CC=C4C[C@@H](O)CC[C@]4(C)[C@H]3CC[C@]12C` [Pregnenolone], in assay [2], the Emax worked out at 34%. In assay [1], this compound yielded an EC50 of 3.3 µM. Turning to `C[C@H](CCC(=O)O)[C@H]1CC[C@H]2[C@@H]3CC[C@@H]4C[C@H](O)CC[C@]4(C)[C@H]3CC[C@]12C` [LCA, 3α-hydroxy-5β-cholan-24-oic acid], the figures for the EC50 in assay [5], in assay [1] and in assay [6] were 20.8 ± 1 µM, 81 µM and 50.3 ± 7.4 µM, respectively. Besides, the Emax came out at 12% in assay [4] and 10% in assay [2]. For the compound `C[C@@]12CCC[C@H]1[C@@H]1CC[C@H]3C[C@H](O)CC[C@]3(C)[C@H]1CC2` [5α-androstan-3α-ol], a half-maximal response in assay [3] (setting [7]) (EC50) required 6.1 ± 0.7 µM.

Source of the values: paper PMC3042382, “The evolution of farnesoid X, vitamin D, and pregnane X receptors: insights from the green-spotted pufferfish (Tetraodon nigriviridis) and other non-mammalian species” (BMC Biochemistry, 2011).
